Source: ChEMBL document CHEMBL4118193, “1,2,3,4,6-Penta-O-galloyl-β-d-glucose suppresses colon cancer through induction of tumor suppressor” (Bioorg Med Chem Lett, 2018)
Active and inactive are the calls of the source. No cut-off for these calls is given here.

Assays:
CCD-18Co = test: Antiproliferative activity against human CCD-18Co cells at 1 to 10 uM after 48 hrs by CytoTox-96 non-radioactive assay; assay type: cell-based
HCT-116 [1] = test: Cytotoxicity against human HCT116 cells assessed as reduction in cell viability by MTT assay; assay type: functional, cell-based
HT-29 [2] = test: Induction of apoptosis in human HT-29 cells assessed as p21 protein level at 2.5 uM after 48 hrs by Western blot method relative to beta-actin; assay type: functional
HCT-116 [3] = test: Induction of apoptosis in human HCT116 cells assessed as in p53 protein level at 2.5 uM after 48 hrs by Western blot method relative to beta-actin; assay type: functional
HT-29 [4] = test: Induction of apoptosis in human HT-29 cells assessed as cleaved caspase-3 protein level at 2.5 uM after 48 hrs by Western blot method relative to caspase-3; assay type: functional
HT-29 [5] = test: Induction of apoptosis in human HT-29 cells assessed as p21 protein level at 10 uM after 48 hrs by Western blot method relative to beta-actin; assay type: functional
HCT-116 [6] = test: Cell cycle arrest in human HCT116 cells assessed as accumulation at G2/M phase at 1 uM after 48 hrs (reference value: 21.5%); assay type: functional
HCT-116 [7] = test: Induction of apoptosis in human HCT116 cells assessed as late apoptotic cells at 2.5 uM after 48 hrs by Annexin-V and dead cell assay (reference value: 1.45%); assay type: functional
HCT-116 [8] = test: Induction of apoptosis in human HCT116 cells assessed as cyclin E protein level at 1 uM after 48 hrs by Western blot method relative to beta-actin; assay type: functional
HT-29 [9] = test: Induction of apoptosis in human HT-29 cells assessed as CDK2 protein level at 1 uM after 48 hrs by Western blot method relative to beta-actin; assay type: functional
HCT-116 [10] = test: Induction of apoptosis in human HCT116 cells assessed as p53 protein level at 1 uM after 48 hrs by Western blot method relative to beta-actin; assay type: functional
HT-29 [11] = test: Induction of apoptosis in human HT-29 cells assessed as cyclin E protein level at 5 uM after 48 hrs by Western blot method relative to beta-actin; assay type: functional
HCT-116 [12] = test: Induction of apoptosis in human HCT116 cells assessed as CDK2 protein level at 1 uM after 48 hrs by Western blot method relative to beta-actin; assay type: functional
HT-29 [13] = test: Induction of apoptosis in human HT-29 cells assessed as caspase-3 protein level at 2.5 uM after 48 hrs by Western blot method relative to beta-actin; assay type: functional
HCT-116 [14] = test: Induction of apoptosis in human HCT116 cells assessed as CDK2 protein level at 10 uM after 48 hrs by Western blot method relative to beta-actin; assay type: functional
HT-29 [15] = test: Cell cycle arrest in human HT-29 cells assessed as accumulation at S phase at 5 uM after 48 hrs (reference value: 9.7%); assay type: functional
HCT-116 [16] = test: Cytotoxicity against human HCT116 cells at 10 uM after 48 hrs by CytoTox-96 non-radioactive assay; assay type: functional, cell-based
HCT-116 [17] = test: Induction of apoptosis in human HCT116 cells assessed as caspase-3 protein level at 10 uM after 48 hrs by Western blot method relative to beta-actin; assay type: functional
HCT-116 [18] = test: Cell cycle arrest in human HCT116 cells assessed as accumulation at G0/G1 phase at 5 uM after 48 hrs (reference value: 38.5%); assay type: functional
HT-29 [19] = test: Cell cycle arrest in human HT-29 cells assessed as accumulation at G2/M phase at 2.5 uM after 48 hrs (reference value: 14.7%); assay type: functional
HCT-116 [20] = test: Cell cycle arrest in human HCT116 cells assessed as accumulation at S phase at 1 uM after 48 hrs (reference value: 10.9%); assay type: functional
HCT-116 [21] = test: Induction of apoptosis in human HCT116 cells assessed as caspase-3 protein level at 1 uM after 48 hrs by Western blot method relative to beta-actin; assay type: functional
HCT-116 [22] = test: Induction of apoptosis in human HCT116 cells after 48 hrs by Annexin-V and dead cell assay; assay type: functional, cell-based
HT-29 [23] = test: Cytotoxicity against human HT-29 cells assessed as reduction in cell viability by MTT assay; assay type: functional, cell-based
HCT-116 [24] = test: Induction of apoptosis in human HCT116 cells assessed as cleaved caspase-3 protein level at 2.5 uM after 48 hrs by Western blot method relative to caspase-3; assay type: functional
HCT-116 [25] = test: Induction of apoptosis in human HCT116 cells assessed as increase in caspase-3/7 activity at 1 to 10 uM measured after 48 hrs by Caspase-Glo 3/7 assay; assay type: functional, cell-based
HCT-116 [26] = test: Cell cycle arrest in human HCT116 cells assessed as accumulation at subG1 phase after 48 hrs; assay type: functional, cell-based
HCT-116 [27] = test: Induction of apoptosis in human HCT116 cells assessed as cleaved caspase-3 protein level at 5 uM after 48 hrs by Western blot method relative to caspase-3; assay type: functional
HT-29 [28] = test: Induction of apoptosis in human HT-29 cells assessed as CDK2 protein level at 5 uM after 48 hrs by Western blot method relative to beta-actin; assay type: functional
HT-29 [29] = test: Induction of apoptosis in human HT-29 cells assessed as in p53 protein level at 5 uM after 48 hrs by Western blot method relative to beta-actin; assay type: functional
HCT-116 [30] = test: Cytotoxicity against human HCT116 cells at 1 to 10 uM after 48 hrs by CytoTox-96 non-radioactive assay; assay type: functional, cell-based
HT-29 [31] = test: Cytotoxicity against human HT-29 cells at 1 to 10 uM after 48 hrs by CytoTox-96 non-radioactive assay; assay type: functional, cell-based
HCT-116 [32] = test: Induction of apoptosis in human HCT116 cells assessed as caspase-3 protein level at 5 uM after 48 hrs by Western blot method relative to beta-actin; assay type: functional
HT-29 [33] = test: Cell cycle arrest in human HT-29 cells assessed as accumulation at G2/M phase at 10 uM after 48 hrs (reference value: 14.7%); assay type: functional
HCT-116 [34] = test: Cell cycle arrest in human HCT116 cells assessed as accumulation at G2/M phase at 5 uM after 48 hrs (reference value: 21.5%); assay type: functional

Structure (SMILES): O=C(OC[C@H]1O[C@@H](OC(=O)c2cc(O)c(O)c(O)c2)[C@H](OC(=O)c2cc(O)c(O)c(O)c2)[C@@H](OC(=O)c2cc(O)c(O)c(O)c2)[C@@H]1OC(=O)c1cc(O)c(O)c(O)c1)c1cc(O)c(O)c(O)c1 [PENTAGALLOYL GLUCOSE]
- Activity (CCD-18Co): Non-Toxic
- IC50 (HCT-116 [1]): 1.61 µM
- fold change (FC) (HT-29 [2]): 2.8
- fold change (FC) (HCT-116 [3]): 2.5
- fold change (FC) (HT-29 [4]): 6
- fold change (FC) (HT-29 [5]): 0.1
- Activity (HCT-116 [6]): 18.1%
- Activity (HCT-116 [7]): 1%
- fold change (FC) (HCT-116 [8]): 1.8
- fold change (FC) (HT-29 [9]): 0.9
- fold change (FC) (HCT-116 [10]): 1.8
- fold change (FC) (HT-29 [11]): 0.8
- fold change (FC) (HCT-116 [12]): 0.9
- fold change (FC) (HT-29 [13]): 4.7
- fold change (FC) (HCT-116 [14]): 0.3
- Activity (HT-29 [15]): 14.3%
- Activity (HCT-116 [16]): Active
- fold change (FC) (HCT-116 [17]): 488.4
- Activity (HCT-116 [18]): 17.9%
- Activity (HT-29 [19]): 20.8%
- Activity (HCT-116 [20]): 9.8%
- fold change (FC) (HCT-116 [21]): 29.6
- Activity (HCT-116 [22]): Dose-dependent effect
- IC50 (HT-29 [23]): 4.46 µM
- fold change (FC) (HCT-116 [24]): 1.8
- Activity (HCT-116 [25]): Active
- Activity (HCT-116 [26]): Dose-dependent effect
- fold change (FC) (HCT-116 [27]): 2
- fold change (FC) (HT-29 [28]): 0.4
- fold change (FC) (HT-29 [29]): 3
- Activity (HCT-116 [30]): Active
- Activity (HT-29 [31]): Active
- fold change (FC) (HCT-116 [32]): 309.9
- Activity (HT-29 [33]): 11.7%
- Activity (HCT-116 [34]): 20.9%
